Assay results: patent US20150307520A1, “NOVEL HETEROARYL AND HETEROCYCLE COMPOUNDS, COMPOSITIONS AND METHODS THEREOF” (HUTCHISON MEDIPHARMA LIMITED, priority 2012, published 2015)

Assays:
p110δ/p85α = p110δ/p85α (Homo sapiens, UniProt O00329); assay: Transcreener KINASE Assay, kinase inhibition of p110δ/p85α; format: biochemical; settings: for PI3Kδ IH % @ 1 uM: 1 uM test compound; for IC50: read-out: PI3Kδ IC50
In short: (§1)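 ADP formation read by far-red competitive FP immunoassay (60 min RT detection step) after an 80 min RT kinase reaction; substrate added as a 30 uM PIP2/10 uM ATP solution (not final).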

p110β/p85α = p110β/p85α (Homo sapiens, UniProt P42338); assay: Transcreener KINASE Assay, kinase inhibition of p110β/p85α; format: biochemical; settings: for PI3Kβ IH % @ 1 uM: 1 uM test compound; for IC50: read-out: PI3Kβ IC50
In short: as §1

PI3Kγ = PI3Kγ (Mus musculus, UniProt Q9JHG7); assay: Acumen Assay - Raw264.7 p-AKT Assay (C5a stimulated); format: cell-based; settings: Raw264.7 macrophage cells, compound 30 min, stimulated with 10 nM C5a for 5 min, p-AKT (Ser473) readout; read-out: PI3Kγ cell-C5a Raw264.7 IC50
Sequence of PI3Kγ (Q9JHG7 whole entry): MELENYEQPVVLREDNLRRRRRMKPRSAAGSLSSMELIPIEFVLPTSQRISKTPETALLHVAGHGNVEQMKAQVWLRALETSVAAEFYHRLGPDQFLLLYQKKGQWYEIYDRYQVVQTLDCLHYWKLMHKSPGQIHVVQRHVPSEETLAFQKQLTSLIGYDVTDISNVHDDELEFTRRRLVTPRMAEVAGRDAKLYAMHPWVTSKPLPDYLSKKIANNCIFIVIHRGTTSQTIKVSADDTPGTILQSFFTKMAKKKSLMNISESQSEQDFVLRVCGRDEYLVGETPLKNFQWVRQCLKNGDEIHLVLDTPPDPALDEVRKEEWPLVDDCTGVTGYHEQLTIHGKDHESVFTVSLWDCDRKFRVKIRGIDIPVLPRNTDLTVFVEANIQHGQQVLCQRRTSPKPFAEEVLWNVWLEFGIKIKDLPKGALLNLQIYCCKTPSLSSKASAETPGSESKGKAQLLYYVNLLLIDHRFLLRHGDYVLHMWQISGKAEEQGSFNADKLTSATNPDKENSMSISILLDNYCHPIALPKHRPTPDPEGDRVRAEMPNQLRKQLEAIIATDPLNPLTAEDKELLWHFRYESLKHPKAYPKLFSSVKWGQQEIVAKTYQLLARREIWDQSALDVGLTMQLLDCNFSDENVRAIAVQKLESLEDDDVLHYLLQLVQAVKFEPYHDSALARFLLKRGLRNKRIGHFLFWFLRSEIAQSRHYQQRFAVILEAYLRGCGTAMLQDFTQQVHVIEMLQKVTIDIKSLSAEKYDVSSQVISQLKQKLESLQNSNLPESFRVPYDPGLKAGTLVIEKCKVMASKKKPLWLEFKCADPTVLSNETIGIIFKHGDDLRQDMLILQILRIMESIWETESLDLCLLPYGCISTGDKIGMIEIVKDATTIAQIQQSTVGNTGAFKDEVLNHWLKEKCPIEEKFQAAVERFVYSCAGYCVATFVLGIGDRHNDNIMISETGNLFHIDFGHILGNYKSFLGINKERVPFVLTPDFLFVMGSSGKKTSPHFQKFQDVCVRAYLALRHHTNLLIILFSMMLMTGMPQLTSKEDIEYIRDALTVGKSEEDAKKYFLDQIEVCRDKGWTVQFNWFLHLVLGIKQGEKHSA
Procedure: Acumen Assay—Raw264.7 p-AKT Assay
Acumen® eX3 (A Multilaser Microplate Cytometer For Enhanced High Content Screening): TTP LabTech
3×10^4 Raw264.7 macrophage cells were seeded into 96-well plates with DMEM+10% heat-inactivated FBS at […], 90 ul/well, overnight. After starvation for 3 hr at 37° C. under 5% CO2, Raw264.7 cells were treated with 10 ul/well various concentrations of compound or 0.5% DMSO for 30 min, and then stimulated with 10 ul/well 10 nM C5a for 5 min.
1.) Cells were fixed 110 μL of 4% pre-warmed Paraformaldehyde (2% final), incubate for 45 min at room temperature. 2.) Remove paraformaldehyde solution. Add 100 μL of ice-cold 0.1% Triton X-100 in PBS and leave at 4° C. for 30 min. 3.) Wash once in 100 μL PBS. 4.) Incubate with 100 μL blocking buffer (1% BSA, in PBS) for 2 hours at room temperature. 5.) Wash once for 5 min with 100 ul PBS. 6.) Incubate with 40 μL 1:200 dilution of phospho AKT (Ser473) rabbit antibody in antibody dilution buffer (0.1% BSA, in PBS) overnight at 4° C. 7.) Wash for 3 times for 10 min with 100 ul PBS. 8.) Incubate for 90 min at room temperature with 50 μL of goat anti-rabbit Alex488 antibody at a 1:1,000 dilution in antibody dilution buffer (0.1% BSA, in PBS). Cover plate in foil to keep out of light. 9.) Wash for 3 times for 10 min with 100 μL PBS. 10.) Add 50 μL of 1.5 μM Propidium Iodide solution to each well to determine cell number at a 1:1,000 dilution in PBS (stock: 1.5 mM). 11.) Incubate at room temperature for 30 min. 12.) Seal the plate with a black cover-seal (supplied with plate). 13.) Load the plate into the Acumen Explorer and scan with the appropriate instrument settings.

p110α/p85α = p110α/p85α (Homo sapiens, UniProt P42336); assay: Transcreener KINASE Assay, kinase inhibition of p110α/p85α; format: biochemical; settings: read-out: PI3Kα IC50
Sequence of p110α/p85α (P42336 whole entry): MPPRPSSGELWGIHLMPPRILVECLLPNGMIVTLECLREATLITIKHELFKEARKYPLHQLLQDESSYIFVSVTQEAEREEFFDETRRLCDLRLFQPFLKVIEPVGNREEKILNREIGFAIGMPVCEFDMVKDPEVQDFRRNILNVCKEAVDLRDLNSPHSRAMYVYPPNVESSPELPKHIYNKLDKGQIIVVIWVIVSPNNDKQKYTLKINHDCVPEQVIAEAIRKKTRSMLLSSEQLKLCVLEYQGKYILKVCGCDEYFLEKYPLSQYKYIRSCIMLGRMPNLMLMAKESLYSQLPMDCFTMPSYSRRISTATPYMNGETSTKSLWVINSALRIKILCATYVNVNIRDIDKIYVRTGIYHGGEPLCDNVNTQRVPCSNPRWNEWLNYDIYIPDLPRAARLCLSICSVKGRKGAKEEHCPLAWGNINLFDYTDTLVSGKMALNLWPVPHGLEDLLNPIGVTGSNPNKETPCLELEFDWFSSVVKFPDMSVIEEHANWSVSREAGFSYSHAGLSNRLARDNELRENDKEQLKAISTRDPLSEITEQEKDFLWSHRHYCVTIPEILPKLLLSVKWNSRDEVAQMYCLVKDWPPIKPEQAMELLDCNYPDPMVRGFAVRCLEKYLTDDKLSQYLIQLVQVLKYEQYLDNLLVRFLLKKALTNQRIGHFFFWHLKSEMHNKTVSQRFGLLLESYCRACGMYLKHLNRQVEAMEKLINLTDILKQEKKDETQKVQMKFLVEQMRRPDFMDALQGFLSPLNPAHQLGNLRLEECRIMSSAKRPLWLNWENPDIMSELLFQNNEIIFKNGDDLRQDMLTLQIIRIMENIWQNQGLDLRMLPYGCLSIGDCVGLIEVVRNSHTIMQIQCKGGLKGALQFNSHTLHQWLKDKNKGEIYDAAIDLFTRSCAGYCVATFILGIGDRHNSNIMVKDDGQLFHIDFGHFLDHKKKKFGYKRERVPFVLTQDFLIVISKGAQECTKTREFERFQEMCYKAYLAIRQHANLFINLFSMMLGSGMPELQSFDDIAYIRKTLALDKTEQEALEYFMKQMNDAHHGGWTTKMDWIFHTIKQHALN
Sequence of p110α/p85α (P27986 whole entry partner): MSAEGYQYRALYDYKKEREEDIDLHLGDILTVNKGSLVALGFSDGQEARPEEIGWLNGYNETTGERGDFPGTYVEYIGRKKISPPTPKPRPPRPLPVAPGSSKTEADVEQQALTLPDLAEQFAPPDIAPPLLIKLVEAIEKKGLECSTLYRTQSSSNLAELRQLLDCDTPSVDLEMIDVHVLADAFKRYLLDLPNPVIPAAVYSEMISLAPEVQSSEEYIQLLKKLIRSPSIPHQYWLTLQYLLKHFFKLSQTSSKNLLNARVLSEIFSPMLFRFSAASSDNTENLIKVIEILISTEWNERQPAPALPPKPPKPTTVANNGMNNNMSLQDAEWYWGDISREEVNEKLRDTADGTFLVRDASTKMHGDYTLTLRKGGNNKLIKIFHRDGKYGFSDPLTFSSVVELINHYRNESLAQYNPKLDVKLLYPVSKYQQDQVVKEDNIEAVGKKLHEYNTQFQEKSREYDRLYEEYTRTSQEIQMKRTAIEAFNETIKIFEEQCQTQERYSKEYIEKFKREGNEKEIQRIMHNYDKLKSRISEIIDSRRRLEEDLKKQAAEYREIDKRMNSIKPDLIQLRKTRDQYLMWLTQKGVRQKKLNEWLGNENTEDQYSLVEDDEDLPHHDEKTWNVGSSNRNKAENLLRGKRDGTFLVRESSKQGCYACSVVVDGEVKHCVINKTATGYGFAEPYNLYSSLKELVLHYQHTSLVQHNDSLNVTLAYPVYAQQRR
In short: as §1

p110γ = p110γ (Homo sapiens, UniProt P48736); assay: Transcreener KINASE Assay, kinase inhibition of p110γ; format: biochemical; settings: for PI3Kγ IH % @ 1 uM: 1 uM test compound; for IC50: read-out: PI3Kγ IC50
Sequence of p110γ (P48736 whole entry, canonical isoform): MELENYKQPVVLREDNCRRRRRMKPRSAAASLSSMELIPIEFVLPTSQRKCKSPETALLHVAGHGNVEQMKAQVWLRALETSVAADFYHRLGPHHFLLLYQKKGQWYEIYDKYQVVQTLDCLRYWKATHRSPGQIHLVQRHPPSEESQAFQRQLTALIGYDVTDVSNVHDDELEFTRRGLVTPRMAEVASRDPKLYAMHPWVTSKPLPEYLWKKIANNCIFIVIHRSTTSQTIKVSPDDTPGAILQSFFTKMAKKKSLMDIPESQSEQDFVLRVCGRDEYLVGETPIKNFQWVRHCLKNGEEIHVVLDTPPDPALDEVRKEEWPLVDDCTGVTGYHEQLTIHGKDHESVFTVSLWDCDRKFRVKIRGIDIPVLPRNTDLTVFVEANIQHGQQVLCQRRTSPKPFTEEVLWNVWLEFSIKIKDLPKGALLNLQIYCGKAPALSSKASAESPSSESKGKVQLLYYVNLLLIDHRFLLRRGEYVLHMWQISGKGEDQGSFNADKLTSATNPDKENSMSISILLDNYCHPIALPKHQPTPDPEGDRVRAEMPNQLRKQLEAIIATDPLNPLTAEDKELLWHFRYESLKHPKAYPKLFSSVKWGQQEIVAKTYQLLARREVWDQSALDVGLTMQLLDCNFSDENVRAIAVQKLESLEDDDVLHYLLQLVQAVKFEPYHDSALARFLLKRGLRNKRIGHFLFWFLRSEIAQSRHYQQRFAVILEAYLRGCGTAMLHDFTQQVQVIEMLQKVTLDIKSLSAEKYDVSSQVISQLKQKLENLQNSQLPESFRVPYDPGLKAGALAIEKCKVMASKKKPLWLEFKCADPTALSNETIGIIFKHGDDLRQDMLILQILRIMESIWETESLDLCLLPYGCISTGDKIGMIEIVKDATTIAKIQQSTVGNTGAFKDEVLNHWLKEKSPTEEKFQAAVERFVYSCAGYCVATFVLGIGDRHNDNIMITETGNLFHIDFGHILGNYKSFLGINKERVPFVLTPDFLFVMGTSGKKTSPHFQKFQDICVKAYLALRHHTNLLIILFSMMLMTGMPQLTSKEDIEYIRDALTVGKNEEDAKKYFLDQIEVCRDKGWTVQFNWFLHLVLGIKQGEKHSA
In short: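 ADP-detecting fluorescence polarization immunoassay run as two-step endpoint: kinase reaction for 80 min, detection for 60 min, both at room temperature. Enzymes are recombinant p110 isoforms with p85α, except p110γ. IC50s derived from fitted inhibition curves.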

Sequence of p110δ/p85α (O00329 whole entry): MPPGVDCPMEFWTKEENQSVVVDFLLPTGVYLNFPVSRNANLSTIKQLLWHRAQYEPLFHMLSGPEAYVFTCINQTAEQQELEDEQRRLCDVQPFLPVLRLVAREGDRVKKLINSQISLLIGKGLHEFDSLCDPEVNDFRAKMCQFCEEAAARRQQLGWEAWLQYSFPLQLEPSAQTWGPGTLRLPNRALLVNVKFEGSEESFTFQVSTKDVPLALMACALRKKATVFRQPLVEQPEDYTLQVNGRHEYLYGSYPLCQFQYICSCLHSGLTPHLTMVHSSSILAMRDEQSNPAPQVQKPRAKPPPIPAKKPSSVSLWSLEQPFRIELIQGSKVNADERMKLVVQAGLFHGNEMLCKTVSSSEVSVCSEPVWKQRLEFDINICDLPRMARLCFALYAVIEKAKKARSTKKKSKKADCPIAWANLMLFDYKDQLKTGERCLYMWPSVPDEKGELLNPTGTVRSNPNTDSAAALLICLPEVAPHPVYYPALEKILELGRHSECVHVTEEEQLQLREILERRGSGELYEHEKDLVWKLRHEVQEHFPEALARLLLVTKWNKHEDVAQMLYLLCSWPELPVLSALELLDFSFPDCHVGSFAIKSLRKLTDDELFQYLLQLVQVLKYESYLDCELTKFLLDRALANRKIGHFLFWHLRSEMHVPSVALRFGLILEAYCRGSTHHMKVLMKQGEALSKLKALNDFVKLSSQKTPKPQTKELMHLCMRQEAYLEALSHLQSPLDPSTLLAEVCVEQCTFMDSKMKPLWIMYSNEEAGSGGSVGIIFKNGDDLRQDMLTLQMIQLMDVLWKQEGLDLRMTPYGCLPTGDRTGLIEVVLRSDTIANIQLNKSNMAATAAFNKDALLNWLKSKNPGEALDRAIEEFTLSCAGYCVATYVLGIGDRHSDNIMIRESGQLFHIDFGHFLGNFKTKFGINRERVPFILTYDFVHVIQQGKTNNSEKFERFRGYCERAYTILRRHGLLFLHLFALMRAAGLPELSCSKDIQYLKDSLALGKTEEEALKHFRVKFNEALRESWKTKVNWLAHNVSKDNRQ
Sequence of p110δ/p85α (P27986 whole entry partner): as the sequence (P27986 whole entry partner) above

Structure (SMILES)	PI3Kδ IH % @ 1 uM (p110δ/p85α) [%]	IC50 (p110δ/p85α) [nM]	PI3Kβ IH % @ 1 uM (p110β/p85α) [%]	IC50 (p110β/p85α) [nM]	IC50 (PI3Kγ) [nM]	IC50 (p110α/p85α) [nM]	PI3Kγ IH % @ 1 uM (p110γ) [%]	IC50 (p110γ) [nM]
CC(=O)c1cnc(N)nc1N1CC[C@H]1c1nn2ccc(C(F)(F)F)c2c(=O)n1-c1ccccc1 [Compound 486, (S)-2-(1-(5-acetyl-2-aminopyrimidin-4-yl)azetidin-2-yl)-3-phenyl-5-(trifluoromethyl)pyrrolo[2,1-f][1,2,4]triazin-4(3H)-one]	>100	22	41.5		51		>100	13
CC(=O)c1c(N)nc(N)nc1N1CCC1c1nn2ccc(Cl)c2c(=O)n1-c1ccccc1 (stereo not shown) [Compound 492]	97.73	30	50.7		12		>100	12
C[C@H]1CN(c2nc(N)ncc2C#N)C1c1nn2ccc(Cl)c2c(=O)n1-c1ccccc1 (stereo partly shown) [Compound 431]	96.2	7	51.3		85		95.9	8
Cc1nc(N)nc(N2CC[C@H]2c2nn3ccc(C(F)(F)F)c3c(=O)n2-c2ccccc2)c1C#N [Compound 487]	>100	6	64.7		46		>100	8
CC(=O)c1cnc(N)nc1N1C[C@H](C)[C@H]1c1nn2ccc(C(F)(F)F)c2c(=O)n1-c1ccccc1 [Compound 489]	>100	3	63.6	296	23		>100	8
CC(=O)c1c(N)nc(N)nc1N1C[C@H](C)C1c1nn2ccc(Cl)c2c(=O)n1-c1cccc(F)c1 (stereo partly shown) [Compound 493]	99.7	6	73.6	250	8		>100	8

More lines, now with the values ahead:

PI3Kδ IH % @ 1 uM (p110δ/p85α) [%]	IC50 (p110δ/p85α) [nM]	PI3Kβ IH % @ 1 uM (p110β/p85α) [%]	IC50 (p110β/p85α) [nM]	IC50 (PI3Kγ) [nM]	IC50 (p110α/p85α) [nM]	PI3Kγ IH % @ 1 uM (p110γ) [%]	IC50 (p110γ) [nM]	Structure (SMILES)
>100	1	92.0	78	14	558	>100	3	C[C@H]1CN(c2nc(N)nc(N)c2C#N)[C@@H]1c1nn2ccc(Cl)c2c(=O)n1-c1ccccc1 [Compound 481]
>100	2	67.3	454	36	921	97.0	10	CC(=O)c1cnc(N)nc1N1C[C@H](C)[C@H]1c1nn2ccc(Cl)c2c(=O)n1-c1ccccn1 [Compound 473]
>100	3	93.6	81	11	648	>100	2	C[C@H]1CN(c2nc(N)nc(N)c2C#N)[C@@H]1c1nn2ccc(Cl)c2c(=O)n1-c1ccc(F)cc1 [Compound 480]
>100	1	78.5	24	37		98.7	2	Cc1nc(N)nc(N2C[C@H](C)C2c2nn3ccc(F)c3c(=O)n2-c2ccccc2)c1C#N (stereo partly shown) [Compound 436]
>100	3	47.1		96		92.4	7	CC1(C)CN(c2nc(N)ncc2C#N)C1c1nn2ccc(Cl)c2c(=O)n1-c1ccccc1 (stereo not shown) [Compound 471]
>100	0.4	80.5	54	18		>100	7	Cc1nc(N)nc(N2C[C@H](C)[C@H]2c2nn3ccc(Cl)c3c(=O)n2-c2cccc(F)c2)c1C#N [Compound 461]
